The record followed here is ChEMBL document CHEMBL5625218, “An overview of limonoid synthetic derivatives as promising bioactive molecules” (Eur J Med Chem, 2023).

For assay [1], the system named is Tobacco mosaic virus. Kind of assay: Antiviral activity against TMV assessed as curative effect by measuring inhibition rate at 0.5 mg/ml measured after 72 hrs relative to control. In kind it is functional. More on the design: scale not given: the % may be the effect or the level left.
For assay [2], the system named is Tobacco mosaic virus. Kind of assay: Antiviral activity against TMV assessed as protection effect by measuring inhibition rate at 0.5 mg/ml measured after 72 hrs relative to control. In kind it is functional. More on the design: scale not given: the % may be the effect or the level left.
The test system of assay [3] is Tobacco mosaic virus. Put plainly: Antiviral activity against TMV assessed as inactivation effect by measuring inhibition rate at 0.5 mg/ml measured after 72 hrs relative to control. The format is functional. On the set-up: scale not given: the % may be the effect or the level left.
The test system of another assay is Cryptococcus neoformans. Kind of assay: Antimicrobial activity Cryptococcus neoformans ATCC 28952 assessed as reduction in microbial growth incubated for 24 hrs by broth micro dilution method. The format is functional.
Another assay deals with Candida albicans. Put plainly: Antimicrobial activity against Candida albicans ATCC 10231 assessed as reduction in microbial growth incubated for 24 hrs by broth micro dilution method. In kind it is functional.
Assay [4] is described as follows: Antimicrobial activity Cryptococcus gattii VGI ATCC 2601 assessed as reduction in microbial growth incubated for 24 hrs by broth micro dilution method. The format is functional.
Another assay has as its system Candida parapsilosis. Put plainly: Antimicrobial activity Candida parapsilosis ATCC 22019 assessed as reduction in microbial growth incubated for 24 hrs by broth micro dilution method. In kind it is functional. Conditions: Lodderomyces parapsilosis.
For another assay, the system named is Diutina rugosa. Put plainly: Antimicrobial activity Candida rugosa DSM 2031 assessed as reduction in microbial growth incubated for 24 hrs by broth micro dilution method. The format is functional.
For a further assay, the system named is Candida tropicalis. Kind of assay: Antimicrobial activity against Candida tropicalis ATCC 18803 assessed as reduction in microbial growth incubated for 24 hrs by broth micro dilution method. The format is functional.
The test system of assay [5] is Staphylococcus aureus. Kind of assay: Antibacterial activity against methicillin-resistant Staphylococcus aureus 15019301 assessed as reduction in bacterial growth incubated for 24 hrs by CLSI based Mueller-Hinton broth assay. The format is functional.
The test system of assay [6] is Staphylococcus aureus. Kind of assay: Antibacterial activity against Staphylococcus aureus ATCC 25923 assessed as reduction in bacterial growth incubated for 24 hrs by CLSI based Mueller-Hinton broth assay. The format is functional.
Assay [7] concerns Staphylococcus aureus. Put plainly: Antibacterial activity against methicillin-resistant Staphylococcus aureus 15012406 assessed as reduction in bacterial growth incubated for 24 hrs by CLSI based Mueller-Hinton broth assay. The format is functional.
The next assay relates to HOS. Kind of assay: Anticancer activity against human HOS cells assessed as reduction in cell viability incubated for 72 hrs by Alamar Blue assay. The format is functional, cell-based.
The next assay has as its system ES-2. Put plainly: Anticancer activity against human ES2 cells assessed as reduction in cell viability incubated for 72 hrs by Alamar Blue assay. The format is functional, cell-based. Conditions: ES-2, 72 h.
For a further assay, the system named is A 172. Put plainly: Anticancer activity against human A-172 cells assessed as reduction in cell viability incubated for 72 hrs by Alamar Blue assay. In kind it is functional, cell-based. Conditions: A 172, 72 h.
The subject of another assay is MDA-MB-231. Put plainly: Anticancer activity against human MDA-MB-231 cells assessed as reduction in cell viability incubated for 72 hrs by Alamar Blue assay. In kind it is functional, cell-based. To be noted: MDA-MB-231, 72 h.
The test system of another assay is HepG2. Kind of assay: Anticancer activity against human HepG2 cells assessed as reduction in cell viability incubated for 72 hrs by Alamar Blue assay. In kind it is functional, cell-based. To be noted: HepG2, 72 h. In general terms: Alamar Blue is a resazurin reagent that responds to reducing activity.
A further assay concerns A549. Kind of assay: Anticancer activity against human A549 cells assessed as reduction in cell viability incubated for 72 hrs by Alamar Blue assay. In kind it is functional, cell-based. To be noted: A549, 72 h.
For the next assay, the system named is HCT-116. Put plainly: Anticancer activity against human HCT-116 cells assessed as reduction in cell viability incubated for 72 hrs by MTT assay. In kind it is functional, cell-based. To be noted: HCT-116, 72 h.
The test system of assay [8] is Staphylococcus aureus. Put plainly: Antibacterial activity against methicillin-resistant Staphylococcus aureus 18032913 assessed as reduction in bacterial growth incubated for 24 hrs by CLSI based Mueller-Hinton broth assay. In kind it is functional.
The subject of assay [9] is Staphylococcus aureus. Kind of assay: Antibacterial activity against methicillin-resistant Staphylococcus aureus 17045463 assessed as reduction in bacterial growth incubated for 24 hrs by CLSI based Mueller-Hinton broth assay. The format is functional.
The next assay concerns Plasmodium falciparum. Kind of assay: Antiplasmodial activity against Plasmodium falciparum W2 infected in human erythrocytes assessed as reduction in parasite growth incubated for 48 hrs by YOYO-1 dye based flow cytometric analysis. The format is functional, organism-based. To be noted: W2, 48 h. Background: A flow cytometer gives signals particle by particle.
Assay [10] deals with Voltage-gated inwardly rectifying potassium channel KCNH2 (Homo sapiens, UniProt Q12809). Put plainly: Inhibition of hERG. In kind it is toxicity. (hERG is a cardiac potassium channel; its block is linked to QT prolongation.)
For assay [11], the system named is Mus musculus. Kind of assay: Antinociceptive activity in ip dosed mouse assessed as inhibition of acetic acid-induced abdominal constrictions by writhing test at 70 mg/ml relative to control. On the set-up: scale not given: the % may be the effect or the level left. In kind it is functional.
In assay [12] the test system is Mus musculus. Kind of assay: Anti-inflammatory activity in mouse model of xylene-induced auricle edema assessed as inhibition of ear swelling at 70 mg/ml, IG pre-treated for 1 hr followed by xylene addition and measured after 1 hr relative to control. Conditions: time 2 hrs. The format is functional. More on the design: scale not given: the % may be the effect or the level left.

Values after ≈ are worked out from the molar mass of the structure shown. A value given as a limit tells only on which side of the number the result lay.

Voltage-gated inwardly rectifying potassium channel KCNH2, sequence (Q12809 whole entry): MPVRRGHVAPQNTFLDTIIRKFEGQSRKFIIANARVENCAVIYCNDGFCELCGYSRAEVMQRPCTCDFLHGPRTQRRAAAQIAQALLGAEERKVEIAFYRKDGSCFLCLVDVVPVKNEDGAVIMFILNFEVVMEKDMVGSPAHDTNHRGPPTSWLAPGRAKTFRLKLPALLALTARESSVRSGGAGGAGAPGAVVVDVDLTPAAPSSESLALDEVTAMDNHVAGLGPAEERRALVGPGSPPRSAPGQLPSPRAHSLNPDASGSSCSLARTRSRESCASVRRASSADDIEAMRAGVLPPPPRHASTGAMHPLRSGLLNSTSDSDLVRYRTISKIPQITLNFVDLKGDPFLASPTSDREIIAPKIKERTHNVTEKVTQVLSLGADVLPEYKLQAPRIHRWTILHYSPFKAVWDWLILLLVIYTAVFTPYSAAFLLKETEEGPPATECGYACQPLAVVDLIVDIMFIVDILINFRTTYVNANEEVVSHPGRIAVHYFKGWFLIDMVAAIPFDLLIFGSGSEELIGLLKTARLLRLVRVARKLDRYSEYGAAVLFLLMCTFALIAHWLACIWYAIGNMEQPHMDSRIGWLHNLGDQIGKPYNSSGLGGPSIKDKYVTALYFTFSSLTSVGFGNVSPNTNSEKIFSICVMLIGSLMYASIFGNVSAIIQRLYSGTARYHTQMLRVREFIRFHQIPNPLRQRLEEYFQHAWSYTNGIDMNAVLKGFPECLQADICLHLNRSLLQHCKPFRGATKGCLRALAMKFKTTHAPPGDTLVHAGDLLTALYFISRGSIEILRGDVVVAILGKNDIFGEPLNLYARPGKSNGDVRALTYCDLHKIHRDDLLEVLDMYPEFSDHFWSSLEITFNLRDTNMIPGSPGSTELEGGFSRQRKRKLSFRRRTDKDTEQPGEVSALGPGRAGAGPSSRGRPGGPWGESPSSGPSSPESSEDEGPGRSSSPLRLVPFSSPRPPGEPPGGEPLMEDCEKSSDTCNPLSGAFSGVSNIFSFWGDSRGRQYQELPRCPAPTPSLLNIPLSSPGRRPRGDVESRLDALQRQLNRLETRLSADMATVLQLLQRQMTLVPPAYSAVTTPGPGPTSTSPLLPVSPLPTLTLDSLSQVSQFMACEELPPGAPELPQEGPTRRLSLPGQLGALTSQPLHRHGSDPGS

In the case of `CC1(C)O[C@H]2CC(=O)OC[C@]23[C@H]2CC[C@@]4(C)[C@H](c5ccoc5)OC(=O)[C@H]5O[C@]54[C@]2(C)OC(=O)C[C@@H]13`, the Activity in the assay on Tobacco mosaic virus [1] stood at 13.1%; in the assay with Tobacco mosaic virus [2], 23.6%; in the assay with Tobacco mosaic virus [3], 44.8%.

Take `CC1(C)O[C@@H](CC(=O)NCc2cn(Cc3ccc(Br)cc3)nn2)[C@@]2(CO)[C@H]1CC(=O)[C@@]1(C)C3=CC(=O)O[C@@H](c4ccoc4)[C@]3(C)CC[C@@H]12`: the MIC (in the assay on Cryptococcus neoformans; in the assay with Candida albicans; in assay [4]; in the assay with Candida parapsilosis; with Diutina rugosa; in the assay on Candida tropicalis) was 34 µM in each case.

Consider `C[C@H]1CCC[C@@H]([C@@H](O)c2ccoc2)C1=O`, for which the MIC50 with Staphylococcus aureus [5], with Staphylococcus aureus [6] and in the assay on Staphylococcus aureus [7] was 512 µg/mL (≈ 2460 µM) throughout.

Regarding `CC1(C)O[C@H]2CC(=O)OC[C@]23[C@H]2CC[C@]4(C)C(=CC(=O)O[C@H]4c4coc(C(=O)CCl)c4)[C@]2(C)OC(=O)C[C@@H]13`, the IC50 in the assay with HOS worked out at 3.88 µM; in the assay with ES-2 it was 3.65 µM; in the assay with A 172 it was 1.71 µM; in the assay on MDA-MB-231, 5.53 µM; in the assay with HepG2 it was 8.45 µM; with A549, 7.62 µM. Besides, in the assay on HCT-116, the IC50 was found to be 3.28 µM.

In the case of `CC(=O)O[C@@H](c1ccoc1)[C@@H]1CCC[C@H](C)C1=O`, the MIC50 in the assay on Staphylococcus aureus [5] stood at 64 µg/mL (≈ 256 µM); with Staphylococcus aureus [6], 12 µg/mL (≈ 47.9 µM); with Staphylococcus aureus [7], 128 µg/mL (≈ 511 µM); in the assay on Staphylococcus aureus [8], 64 µg/mL (≈ 256 µM); with Staphylococcus aureus [9], 128 µg/mL (≈ 511 µM).

For the molecule `COC(=O)C[C@H](OC(C)=O)[C@]1(C)[C@H]2CC[C@@]3(C)[C@H](c4ccoc4)OC(=O)[C@H]4O[C@]43[C@]2(C)[C@H](OC(C)=O)C[C@H]1C(C)(C)O`, in the assay with Plasmodium falciparum, the IC50 was found to be 18.3 µM.

Take `CC1(C)O[C@H]2CC(=O)OC[C@]23[C@H]2CC[C@@]4(C)[C@H](c5coc(C(=O)CCCCN6CCOCC6)c5)OC(=O)[C@H]5O[C@]54[C@]2(C)C(=O)C[C@@H]13`: in assay [10], the IC50 is greater than 100 µM.

Regarding `CC1(C)OC(=O)C=C[C@]2(C)[C@H]3CC[C@@]4(C)[C@H](c5ccoc5)OC(=O)[C@H]5O[C@]54[C@]3(C)OC(=O)C[C@@H]12`, the Activity is reported as 17.5% in the assay with Tobacco mosaic virus [1], 30% in the assay with Tobacco mosaic virus [2] and 56.5% in the assay with Tobacco mosaic virus [3].

`CC1(C)O[C@H]2CC(=O)OC[C@]23[C@H]2CC[C@@]4(C)[C@H](c5ccoc5)OC(=O)[C@H]5O[C@]54[C@]2(C)[C@@H](NC(=O)CCN2CCOCC2)C[C@@H]13.Cl`: the Activity is given as 57.35% in the assay with Mus musculus [11] and 58.15% in the assay with Mus musculus [12].

In the case of `CC(=O)O[C@H](c1ccoc1)[C@@H]1CCC[C@H](C)C1=O`, the MIC50 in the assay on Staphylococcus aureus [5] came out at 64 µg/mL (≈ 256 µM); in the assay with Staphylococcus aureus [6], 12 µg/mL (≈ 47.9 µM); with Staphylococcus aureus [7], 128 µg/mL (≈ 511 µM); in the assay on Staphylococcus aureus [8], 64 µg/mL (≈ 256 µM); in the assay with Staphylococcus aureus [9], 128 µg/mL (≈ 511 µM).

Turning to `CC1(C)OC(=O)C=C[C@]2(C)[C@H]3CC[C@@]4(C)[C@H](c5ccoc5)OC(=O)[C@H]5O[C@]54[C@]3(C)C(=O)C[C@@H]12` [OBACUNONE], the Activity with Tobacco mosaic virus [1] was 7.7%; in the assay on Tobacco mosaic virus [2] it was 21.5%; with Tobacco mosaic virus [3], 35.2%.

For `CC1(C)O[C@H]2CC(=O)OC[C@]23[C@H]2CC[C@@]4(C)[C@H](c5ccoc5)OC(=O)[C@H]5O[C@]54[C@]2(C)C(=O)C[C@@H]13` [LIMONIN], the Activity in the assay with Tobacco mosaic virus [1] came to 5.8%; in the assay with Tobacco mosaic virus [2], 27.4%; in the assay on Tobacco mosaic virus [3] it was 41.9%.

With `CC1(C)O[C@H]2CC(=O)OC[C@@]23[C@H]1C[C@H](NC(=O)CCN1CCOCC1)[C@@]1(C)C2=CC(=O)O[C@@H](c4ccoc4)[C@]2(C)CC[C@@H]13.Cl`, the Activity is on record as 54.3% in the assay with Mus musculus [11] and 24.04% in the assay on Mus musculus [12].

For the molecule `CC1(C)O[C@H]2CC(=O)OC[C@]23[C@H]2CC[C@@]4(C)[C@H](c5ccoc5)OC(=O)[C@H]5O[C@]54[C@]2(C)[C@@H](OC(=O)C/C=C/c2ccccc2)C[C@@H]13`, the Activity was 41.7% in the assay on Tobacco mosaic virus [1], 29.3% with Tobacco mosaic virus [2] and 65.7% with Tobacco mosaic virus [3].

Regarding `CC(=O)O[C@H]1CC(=O)OC(C)(C)[C@@H]2C[C@@H](OC(C)=O)[C@]3(C)[C@H](CC[C@@]4(C)[C@H](c5ccoc5)OC(=O)[C@H]5O[C@@]534)[C@@]12C`, the IC50 in the assay with Plasmodium falciparum is 16.5 µM.

`C#CCO[C@H]1C=C(C(C)C)[C@]2(CCCC(=O)O2)[C@H]2CC[C@]3(C)C(=CC(=O)O[C@H]3c3ccoc3)[C@]12C`: the IC50 amounted to 1.61 µM in the assay on HOS; 0.58 µM in the assay with ES-2; 0.78 µM in the assay with A 172; 0.64 µM in the assay on MDA-MB-231; 7.1 µM in the assay on HepG2; 2.59 µM in the assay on A549. Besides, in the assay with HCT-116, the IC50 stood at 1.6 µM.

As for `C[C@H]1CCC[C@@H]([C@H](O)c2ccoc2)C1=O`, the MIC50 with Staphylococcus aureus [5], in the assay on Staphylococcus aureus [6] and with Staphylococcus aureus [7] was 512 µg/mL (≈ 2460 µM) throughout.

For orientation: MIC means the lowest concentration that inhibits growth of the organism. As a reminder, the MIC50 is the lowest concentration that inhibits either 50% of growth or 50% of the strains tested, depending on the study. The term IC50 denotes the point on the concentration scale where inhibition reaches its midpoint.
